pIC50: −log10 of the molar value. Read-outs that look alike come from different tables or passages of the source.
Legend:
[1] = system: HCT116-MTAP-KO cells (HCT116 MTAP null); assay: Proliferation inhibition of HCT116 MTAP-KO cells in vitro (CellTiter Glo); assay type: cell-based; conditions: 6 days, 9 concentrations starting from 3 μM, read-out: Cell proliferation inhibition rate HCT116 MTAP null IC50 (nm)
Source text: (§1) Biological Test Example 2 Proliferation Inhibition of HCT116 and HCT116 MTAP-KO Cells in Vitro
(§2) HCT116 cell line was purchased from the Chinese Academy of Sciences Cell Bank, and the MTAP gene was knocked out by CRISPR/Cas9 technology to obtain HCT116-MTAP-KO cell line.
(§3) McCoy's 5A medium (Gibco, catalog No. 16600082), fetal bovine serum (Gibco, catalog No. 10099141C), penicillin-streptomycin double antibody (Gibco, catalog No. 15140122), pancreatic enzyme (Gibco, catalog No. 25200056), CellTiter Glo assay kit (Promega, catalog No. G7572), 384-well transparent flat-bottomed black walled cell culture plate (Corning, catalog No. 3764), ultra micro sampler (Tecan, catalog No.D300e), Multimode reader (Biotek, catalog No. SynergyHTX)
(§4) 1. Cell culture: HCT116 and HCT116-MTAP-KO cells were cultured in McCoy'5A medium+10% fetal bovine serum+1% penicillin-streptomycin double antibody; to ensure that they were always in the logarithmic growth phase and the cell viability greater than 95%.
(§5) 2. Compound concentration gradient preparation: The compound to be tested was added to a 384-well plate using an ultra micro sampler, starting from 30 μM (HCT116 cells) or 3 μM (HCT116-MTAP-KO cells), and diluted with DMSO at 3 times for a total of 9 concentrations and set up three duplicate wells.
(§6) 3. Treatment of cells with compounds: Trypsin-digested HCT116 or HCT116-MTAP-KO cell suspension was added to the 384-well plates spotted with the compounds to be tested at 40 μL per well, i.e., 100 cells per well, and the final concentration of DMSO was 0.4%. The cell culture plate was incubated at 37° C. in a 5% CO2 incubator for 6 days.
(§7) 4. Detection: 20 μL of CellTiter Glo reagent was added to each well of the cell culture plate and incubated at room temperature for 30 minutes. A multimode reader was used to detect the luminescence signal at […].
(§8) The data was fitted with GraphPad Prism 8.0 software using a four parameter inhibitor-reaction model to obtain the IC50 value (half inhibitory concentration) of the test compounds.

[2] = system: HCT116 MTAP WT cells; assay: Proliferation inhibition of HCT116 cells in vitro (CellTiter Glo); assay type: cell-based; conditions: 6 days, 9 concentrations starting from 30 μM, read-out: Cell proliferation inhibition rate HCT116 MTAP WT IC50 (nm)
Source text: as §1, §2, §3, §4, §5, §6, §7, §8

pIC50 ([1]; HCT116-MTAP null, 144 h)	pIC50 ([2]; Homo sapiens, HCT-116, 144 h)	pIC50 [1]	pIC50 [2]	Structure (SMILES)
> 7.00	5.00 to 6.00			Cc1ccc(N(Cc2ccc(C(F)(F)F)cn2)C(=O)c2cc3c(cc2F)nc(N)c2cnc(C)n23)c(C)n1 [Example 187]
> 7.00	5.00 to 6.00			CCN(Cc1cn2cc(C(F)F)ccc2n1)C(=O)c1cc2c(cc1F)nc(N)c1c(C)ncn12 [Example 244]
6.00 to 7.00	5.00 to 6.00			COCCN(C)c1ccc(CN(C(=O)c2cc3c(cc2F)nc(N)c2cnc(C)n23)c2ccnn2C)nc1 [Example 320]
6.00 to 7.00	5.00 to 6.00			Cn1ncc2c(N)nc3cc(F)c(C(=O)N4CCC5(CCN(c6ccc(C(F)(F)F)cc6)CC5)C4)cc3c21 [Example 414]
> 7.00	5.00 to 6.00			Cc1ncc2c(N)nc3cc(F)c(C(=O)N(Cc4ccc(C(F)(F)F)cn4)c4cnnn4C)cc3n12 [Example 209]
> 7.00	5.00 to 6.00			Cc1ncn2c1c(N)nc1ccc(C(=O)N(Cc3nc(-c4ccccn4)cs3)CC(C)C)cc12 [Example 307]
> 7.00	5.00 to 6.00			Cc1ncc2c(N)nc3cnc(C(=O)N(Cc4ccc(C(F)(F)F)cn4)c4ccnn4C)cc3n12 [Example 211]
> 7.00	5.00 to 6.00			Cc1ncn2c1c(N)nc1ccc(C(=O)N(Cc3nc(-c4ncccn4)cs3)CC(C)C)cc12 [Example 305]
> 7.00	6.00 to 7.00			Cc1nn(C)cc1N(Cc1ccc(OC2CC2)cn1)C(=O)c1cc2c(cn1)nc(N)c1cnc(C)n12 [Example 189]
> 7.00	6.00 to 7.00			COc1ccc(CN(C(=O)c2cc3c(cc2F)nc(N)c2c(C)ncn23)c2cn(C)nc2C)nn1 [Example 197]
> 7.00	5.00 to 6.00			Cc1ncc2c(N)nc3cc(F)c(C(=O)N(Cc4ccc(C(F)(F)F)nn4)c4ccnn4C)cc3n12 [Example 223]
> 7.00	5.00 to 6.00			Cc1ncn2c1c(N)nc1cc(F)c(C(=O)N3C(C)COCC3c3ccc(C(F)(F)F)cc3)cc12 (stereo not drawn) [Example 282]
> 7.00	6.00 to 7.00			Cc1ncc2c(N)nc3cc(F)c(C(=O)N(Cc4ncc(C(F)(F)F)cc4F)c4ccnn4C)cc3n12 [Example 228]
> 7.00	5.00 to 6.00			Cc1ncc2c(N)nc3cc(F)c(C(=O)N(Cc4cnn(-c5ccccn5)c4)c4ccnn4C)cc3n12 [Example 234]
> 7.00	5.00 to 6.00			COC1CCC1N(Cc1cn2cc(C(F)(F)F)ccc2n1)C(=O)c1cc2c(cc1F)nc(N)c1cnc(C)n12 (stereo not drawn) [Example 240]
6.00 to 7.00	5.00 to 6.00			Cc1cccc(-c2ncc(CN(CC(C)C)C(=O)c3ccc4nc(N)c5c(C)ncn5c4c3)[nH]2)n1 [Example 308]
6.00 to 7.00	5.00 to 6.00			CCn1cc(N(Cc2ccc(C(F)(F)F)nn2)C(=O)c2cc3c(cc2F)nc(N)c2cnc(C)n23)c(C)n1 [Example 202]
> 7.00	5.00 to 6.00			Cc1ccc(CN(C(=O)c2cc3c(cc2F)nc(N)c2cnc(C)n23)c2ccnn2C)nc1 [Example 214]
> 7.00	5.00 to 6.00			Cc1cnc(C)c(N(Cc2ccc(C(F)(F)F)cn2)C(=O)c2cc3c(cc2F)nc(N)c2cnc(C)n23)c1 [Example 196]
		> 7.00	5.00 to 6.00	Cc1ncc2c(N)nc3cc(F)c(C(=O)N(Cc4cnn(C(F)(F)F)c4)c4ccnn4C)cc3n12 [Example 213]
6.00 to 7.00	5.00 to 6.00			Cc1ncc2c(N)nc3cc(F)c(C(=O)N(Cc4cnc(C5CC5)n4C)c4ccnn4C)cc3n12 [Example 318]
6.00 to 7.00	5.00 to 6.00			Cc1ncc2c(N)nc3cc(F)c(C(=O)N(Cc4ccncn4)c4ccnn4C)cc3n12 [Example 232]
> 7.00	5.00 to 6.00			Cc1ncc2c(N)nc3cc(F)c(C(=O)N(Cc4ccc(OC5COC5)cn4)c4ccnn4C)cc3n12 [Example 217]

Further lines, the molecule ahead of its results:

Structure (SMILES)	pIC50 ([1]; HCT116-MTAP null, 144 h)	pIC50 ([2]; Homo sapiens, HCT-116, 144 h)	pIC50 [1]	pIC50 [2]
Cc1ncc2c(N)nc3cc(F)c(C(=O)N4C(C)COCC4c4cnc(C(F)(F)F)s4)cc3n12 (stereo not drawn) [Example 89]	> 7.00	5.00 to 6.00		
Cc1ncc2c(N)nc3cc(F)c(C(=O)N(C)C4COc5cc(Br)ccc54)cc3n12 (stereo not drawn) [Example 40]	6.00 to 7.00	5.00 to 6.00		
Cc1nn(C)cc1N(Cc1ccc(C(F)(F)F)cn1)C(=O)c1cc2c(cn1)nc(N)c1cnc(C)n12 [Example 183]	> 7.00	5.00 to 6.00		
Cc1nn(C)cc1N(Cc1ccc(C(F)(F)F)nn1)C(=O)c1cc2c(cc1F)nc(N)c1cnc(C)n12 [Example 127]	6.00 to 7.00	5.00 to 6.00		
COCCN(Cc1cn2ccccc2n1)C(=O)c1cc2c(cc1F)nc(N)c1cnc(C)n12 [Example 27]	> 7.00	6.00 to 7.00		
Cc1c(N(Cc2ccc(C(F)(F)F)cn2)C(=O)c2cc3c(cc2F)nc(N)c2cnc(C)n23)cnn1CC(F)F [Example 180]	> 7.00	5.00 to 6.00		
Cc1ncc2c(N)nc3cc(F)c(C(=O)N(Cc4ncc(C(F)(F)F)cc4F)c4cnn(C)c4)cc3n12 [Example 120]	> 7.00	5.00 to 6.00		
Cc1nn(CCO)cc1N(Cc1ccc(C(F)(F)F)cn1)C(=O)c1cc2c(cc1F)nc(N)c1c(C)ncn12 [Example 165]	> 7.00	5.00 to 6.00		
Cc1ncc2c(N)nc3cc(F)c(C(=O)N(Cc4ccc(C(F)(F)F)cn4)c4cn(C)nc4Cl)cc3n12 [Example 175]	> 7.00	5.00 to 6.00		
Cc1ncn2c1c(N)nc1cc(F)c(C(=O)N3C(C)COCC3c3ccc(C(F)(F)F)cn3)cc12 (stereo not drawn) [Example 155]			> 7.00	5.00 to 6.00
COCCOc1ccc(C2COCC(C)N2C(=O)c2cc3c(cc2F)nc(N)c2c(C)ncn23)nc1 (stereo not drawn) [Example 105]	> 7.00	5.00 to 6.00		
COc1cc(N(Cc2ccc(C(F)(F)F)cn2)C(=O)c2cc3c(cc2F)nc(N)c2cnc(C)n23)nn1C [Example 122]	6.00 to 7.00	5.00 to 6.00		
CCN(Cc1ccc(OC2CC2)cn1)C(=O)c1cc2c(cc1F)nc(N)c1cnc(C)n12 [Example 85]	> 7.00	5.00 to 6.00		
CCn1cc(N(Cc2ccc(OC3CC3)cn2)C(=O)c2cc3c(cc2F)nc(N)c2c(C)ncn23)c(C)n1 [Example 177]	> 7.00	6.00 to 7.00		
Cc1c(N(Cc2ccc(C(F)(F)F)cn2)C(=O)c2cc3c(cc2F)nc(N)c2cnc(C)n23)cnn1C [Example 118]	> 7.00	5.00 to 6.00		
Cc1ncc2c(N)nc3cc(F)c(C(=O)N(Cc4ccc(C(F)(F)F)cn4)c4cnn(C)n4)cc3n12 [Example 83]	> 7.00	5.00 to 6.00		
Cc1ccc2c(N)nc3ccc(C(=O)N(Cc4ccc(C(F)(F)F)cn4)C(C)c4ncccn4)cc3n12 (stereo not drawn) [Example 12]	6.00 to 7.00	5.00 to 6.00		
Cc1nn(CC(F)F)cc1N(Cc1ccc(C(F)(F)F)cn1)C(=O)c1cc2c(cc1F)nc(N)c1cnc(C)n12 [Example 173]	> 7.00	5.00 to 6.00		
CCOc1ccc(CN(CC)C(=O)c2cc3c(cc2F)nc(N)c2cnc(C)n23)nn1 [Example 102]	> 7.00	5.00 to 6.00		
CCN(Cc1ccc(C(F)(F)F)nn1)C(=O)c1cc2c(cc1F)nc(N)c1cnc(C)n12 [Example 81]	6.00 to 7.00	5.00 to 6.00		
Cc1ncc2c(N)nc3cc(F)c(C(=O)N(Cc4cn5cc(C#N)ccc5n4)c4cnn(C)c4)cc3n12 [Example 63]	5.00 to 6.00	5.00 to 6.00		
CCN(Cc1ccc(C(F)(F)F)cn1)C(=O)c1cc2c(cn1)nc(N)c1cnc(C)n12 [Example 9]	> 7.00	5.00 to 6.00		
Cc1ncc2c(N)nc3cc(F)c(C(=O)N(Cc4ccc(C(F)(F)F)cn4)c4ccn(CCO)n4)cc3n12 [Example 117]	6.00 to 7.00	5.00 to 6.00		
CCOc1ccc(CN(C(=O)c2cc3c(cc2F)nc(N)c2c(C)ncn23)c2cn(C)nc2C)nc1 [Example 168]	> 7.00	> 7.00		
Cc1cn2c(n1)c(N)nc1ccc(C(=O)N3[C@H](C)COC[C@@H]3c3cn4ccccc4n3)cc12 [Example 29]	6.00 to 7.00	5.00 to 6.00		
Cc1ncc2c(N)nc3cc(F)c(C(=O)N(Cc4ccc(C(F)(F)F)cn4)c4cn[nH]c4)cc3n12 [Example 88]	6.00 to 7.00	5.00 to 6.00		
CCn1cc(N(Cc2ccc(C(F)(F)F)cn2)C(=O)c2cc3c(cc2F)nc(N)c2cnc(C)n23)c(C)n1 [Example 129]	> 7.00	5.00 to 6.00		
Cc1ncn2c1c(N)nc1cc(F)c(C(=O)N(c3cnn(C)c3)C3COc4ccccc43)cc12 (stereo not drawn) [Example 121]			> 7.00	5.00 to 6.00

From patent publication US20250376473A1, “PRMTS INHIBITOR AND USE THEREOF” (Cytosinlab Therapeutics Co., Ltd., priority 2022, published 2025)
